One compound from paper PMC4980783 (Chemistry Central Journal, 2016) can be followed below.

The experiment deals with influenza virus NA (Influenza A virus, UniProt Q6DPL2). The experiment is classed as biochemical. As to conditions: single replicates (3).

The structures appear in SMILES notation. Where “and” joins values, the source holds several entries; their conditions need not be identical. Equal entries are not always repeated. Where two headings read alike, the source gives them in different places.

Sequence of influenza virus NA (Q6DPL2 whole entry, looked up): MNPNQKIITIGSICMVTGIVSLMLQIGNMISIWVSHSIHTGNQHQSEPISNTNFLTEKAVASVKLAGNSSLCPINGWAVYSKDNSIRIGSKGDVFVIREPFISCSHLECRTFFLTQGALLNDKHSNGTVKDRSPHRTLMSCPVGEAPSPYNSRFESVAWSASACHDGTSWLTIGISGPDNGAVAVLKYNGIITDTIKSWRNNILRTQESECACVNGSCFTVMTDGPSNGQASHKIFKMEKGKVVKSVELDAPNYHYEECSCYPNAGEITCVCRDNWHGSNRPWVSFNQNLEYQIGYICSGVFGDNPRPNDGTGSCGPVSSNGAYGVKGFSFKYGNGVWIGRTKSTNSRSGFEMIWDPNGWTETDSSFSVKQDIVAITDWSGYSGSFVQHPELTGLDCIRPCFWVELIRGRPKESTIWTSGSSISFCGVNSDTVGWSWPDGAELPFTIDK

As for `CC(=O)N[C@H]1[C@H]([C@H](O)[C@H](O)CO)OC(C(=O)O)=C[C@@H]1N=C(N)N` [Zanamivir, zanamivir], the inhibition rates runs as follows: (first line per compound) 100.00 and 99.40 and 99.96; (second line per compound, presumably 5-fold diluted (Sheet1)) 44.04 and 41.05; (third line per compound) 17.05 and 17.04 and 19.04.
